Test results as given in US11987588B2, “Modulators of the beta-3 adrenergic receptor useful for the treatment or prevention of heart failure and disorders related thereto” (Arena Pharmaceuticals, Inc., priority 2017, dated 2024).

These molecules were tested against Beta-3 Adrenergic Receptor (Homo sapiens (Human), UniProt P13945) (assay: Homogeneous Time-Resolved Fluorescence (HTRF) cAMP antagonist assay, IC50 determination). Conditions: CHO-K1 cells stably expressing recombinant receptor, isoproterenol at EC90.
Sequence of Beta-3 Adrenergic Receptor (P13945 whole entry, species assumed): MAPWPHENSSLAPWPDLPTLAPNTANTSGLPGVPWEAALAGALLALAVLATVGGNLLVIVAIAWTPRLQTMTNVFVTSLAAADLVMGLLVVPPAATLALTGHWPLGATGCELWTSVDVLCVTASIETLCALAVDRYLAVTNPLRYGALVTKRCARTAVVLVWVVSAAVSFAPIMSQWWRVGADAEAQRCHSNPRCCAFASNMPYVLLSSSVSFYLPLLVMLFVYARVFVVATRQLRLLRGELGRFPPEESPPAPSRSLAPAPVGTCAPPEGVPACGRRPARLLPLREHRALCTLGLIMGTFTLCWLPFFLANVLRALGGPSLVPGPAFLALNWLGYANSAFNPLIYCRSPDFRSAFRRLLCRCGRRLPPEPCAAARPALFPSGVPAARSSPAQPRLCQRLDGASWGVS
Format: cell-based
Method in brief: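 CHO-K1 cells stably expressing the recombinant receptor were preincubated with compound (10-point, 5-fold dilutions; top final typically 10 or 100 μM) in PBS with 1 mM IBMX, then stimulated with isoproterenol at its EC90 for 1 h at room temperature. cAMP was read by HTRF against an on-plate standard curve.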
O=S(=O)(NCCF)c1cccc(OC[C@@H](O)CNC2COC3(CCN(S(=O)(=O)c4ccc5ccccc5c4)CC3)C2)c1 (stereo partly drawn) [Compound 356, N-(2-fluoroethyl)-3-((2S)-2-hydroxy-3-(8-(naphthalen-2-ylsulfonyl)-1-oxa-8-azaspiro[4.5]decan-3-ylamino)propoxy)benzenesulfonamide] was tested, and the IC50 was 16.9 nM.
CNS(=O)(=O)c1cccc(OC[C@@H](O)CN[C@H]2COC3(CCN(S(=O)(=O)c4ccc5c(n4)OCC(=O)N5)CC3)C2)c1 [Compound 443, 3-((S)-2-hydroxy-3-((R)-8-(2-oxo-2,3-dihydro-1H-pyrido[2,3-b][1,4]oxazin-6-ylsulfonyl)-1-oxa-8-azaspiro[4.5]decan-3-ylamino)propoxy)-N-methylbenzenesulfonamide] gave an IC50 of 36.9 nM.
Work on CNS(=O)(=O)c1cccc(OC[C@@H](O)CNC2COC3(CCN(S(=O)(=O)c4cccc(CN)c4)CC3)C2)c1 (stereo partly drawn) [Compound 389, 3-((2S)-3-(8-(3-(aminomethyl)phenylsulfonyl)-1-oxa-8-azaspiro[4.5]decan-3-ylamino)-2-hydroxypropoxy)-N-methylbenzenesulfonamide] yielded an IC50 of 475 nM.
CCn1cnc2cc(S(=O)(=O)N3CCC4(CC3)C[C@@H](NC[C@H](O)COc3cccc(S(=O)(=O)NC)c3)CO4)cnc21 [Compound 511, 3-((S)-3-((R)-8-(3-ethyl-3H-imidazo[4,5-b]pyridin-6-ylsulfonyl)-1-oxa-8-azaspiro[4.5]decan-3-ylamino)-2-hydroxypropoxy)-N-methylbenzenesulfonamide] showed an IC50 of 20.4 nM.
Molecule CCNS(=O)(=O)c1cccc(OC[C@@H](O)CNC2COC3(CCN(S(=O)(=O)c4cccc(-c5ccc(N)nc5)c4)CC3)C2)c1 (stereo partly drawn) [Compound 212, 3-((2S)-3-(8-(3-(6-aminopyridin-3-yl)phenylsulfonyl)-1-oxa-8-azaspiro[4.5]decan-3-ylamino)-2-hydroxypropoxy)-N-ethylbenzenesulfonamide] has an IC50 of 13.6 nM.
With CNS(=O)(=O)c1cccc(OC[C@@H](O)CNC2COC3(CCN(S(=O)(=O)c4ccc(O)nc4)CC3)C2)c1 (stereo partly drawn) [Compound 395, 3-((2S)-2-hydroxy-3-(8-(6-hydroxypyridin-3-ylsulfonyl)-1-oxa-8-azaspiro[4.5]decan-3-ylamino)propoxy)-N-methylbenzenesulfonamide] the IC50 was 206 nM.
CNS(=O)(=O)c1cccc(OC[C@@H](O)CNC2COC3(CCN(S(=O)(=O)c4cccc5ccccc45)CC3)C2)c1 (stereo partly drawn) [Compound 55, 3-((2S)-2-hydroxy-3-(8-(naphthalen-1-ylsulfonyl)-1-oxa-8-azaspiro[4.5]decan-3-ylamino)propoxy)-N-methylbenzenesulfonamide] was tested, and the IC50 was 18 nM.
In the case of CNS(=O)(=O)c1cccc(OC[C@@H](O)CNC2COC3(CCN(S(=O)(=O)c4cc(OC)ccc4F)CC3)C2)c1 (stereo partly drawn) [Compound 241, 3-((2S)-3-(8-(2-fluoro-5-methoxyphenylsulfonyl)-1-oxa-8-azaspiro[4.5]decan-3-ylamino)-2-hydroxypropoxy)-N-methylbenzenesulfonamide], the IC50 is reported as 27.8 nM.
With CNS(=O)(=O)c1cccc(OC[C@@H](O)CN[C@@H]2COC3(CCN(S(=O)(=O)c4ccc5c(c4)NC(=O)CO5)CC3)C2)c1 [Compound 278, 3-((S)-2-hydroxy-3-((S)-8-(3-oxo-3,4-dihydro-2H-benzo[b][1,4]oxazin-6-ylsulfonyl)-1-oxa-8-azaspiro[4.5]decan-3-ylamino)propoxy)-N-methylbenzenesulfonamide] the IC50 was 12.8 nM.
For CN1CCOc2ncc(S(=O)(=O)N3CCC4(CC3)C[C@@H](NC[C@H](O)COc3cccc(S(N)(=O)=O)c3)CO4)cc21 [Compound 458, 3-((S)-2-hydroxy-3-((R)-8-(1-methyl-2,3-dihydro-1H-pyrido[2,3-b][1,4]oxazin-7-ylsulfonyl)-1-oxa-8-azaspiro[4.5]decan-3-ylamino)propoxy)benzenesulfonamide], the IC50 was 45.7 nM.
In the case of CNS(=O)(=O)c1cccc(OC[C@@H](O)CNC2COC3(CCN(S(=O)(=O)c4cccc(-c5cnn(CC(C)C)c5)c4)CC3)C2)c1 (stereo partly drawn) [Compound 81, 3-((2S)-2-hydroxy-3-(8-(3-(1-isobutyl-1H-pyrazol-4-yl)phenylsulfonyl)-1-oxa-8-azaspiro[4.5]decan-3-ylamino)propoxy)-N-methylbenzenesulfonamide], the IC50 is reported as 16.6 nM.
CNS(=O)(=O)c1cccc(OC[C@@H](O)CNC2COC3(CCN(S(=O)(=O)c4ccccc4-c4ccc(CN)cc4)CC3)C2)c1 (stereo partly drawn) [Compound 381, 3-((2S)-3-(8-(4′-(aminomethyl)biphenyl-2-ylsulfonyl)-1-oxa-8-azaspiro[4.5]decan-3-ylamino)-2-hydroxypropoxy)-N-methylbenzenesulfonamide] was tested, and the IC50 was 357 nM.
In the case of CNS(=O)(=O)c1cccc(OC[C@@H](O)CNC2COC3(CCN(S(=O)(=O)c4cccc(-c5cn(C)c(=O)n(C)c5=O)c4)CC3)C2)c1 (stereo partly drawn) [Compound 113, 3-((2S)-3-(8-(3-(1,3-dimethyl-2,4-dioxo-1,2,3,4-tetrahydropyrimidin-5-yl)phenylsulfonyl)-1-oxa-8-azaspiro[4.5]decan-3-ylamino)-2-hydroxypropoxy)-N-methylbenzenesulfonamide], the IC50 is reported as 213 nM.
Work on CNS(=O)(=O)c1cccc(OC[C@@H](O)CNC2COC3(CCN(S(=O)(=O)c4ccc(OC)c(OC)c4)CC3)C2)c1 (stereo partly drawn) [Compound 153, 3-((2S)-3-(8-(3,4-dimethoxyphenylsulfonyl)-1-oxa-8-azaspiro[4.5]decan-3-ylamino)-2-hydroxypropoxy)-N-methylbenzenesulfonamide] yielded an IC50 of 43.6 nM.
Molecule CNS(=O)(=O)c1cccc(OC[C@@H](O)CN[C@@H]2COC3(CCN(S(=O)(=O)c4cccc(-c5ccc(N)nc5)c4)CC3)C2)c1 [Compound 286, 3-((S)-3-((S)-8-(3-(6-aminopyridin-3-yl)phenylsulfonyl)-1-oxa-8-azaspiro[4.5]decan-3-ylamino)-2-hydroxypropoxy)-N-methylbenzenesulfonamide] has an IC50 of 20.5 nM.
In the case of CNS(=O)(=O)c1cccc(OC[C@@H](O)CNC2COC3(CCN(S(=O)(=O)c4cccc(-c5ccc(/C(N)=N/O)cc5)c4)CC3)C2)c1 (stereo partly drawn) [Compound 379, (Z)-N′-hydroxy-3′-(3-((S)-2-hydroxy-3-(3-(N-methylsulfamoyl)phenoxy)propylamino)-1-oxa-8-azaspiro[4.5]decan-8-ylsulfonyl)biphenyl-4-carboximidamide], the IC50 is reported as 11.1 nM.
CCNS(=O)(=O)c1cccc(OC[C@@H](O)CNC2COC3(CCN(S(=O)(=O)c4ccc(Cl)c5nonc45)CC3)C2)c1 (stereo partly drawn) [Compound 235, 3-((2S)-3-(8-(7-chlorobenzo[c][1,2,5]oxadiazol-4-ylsulfonyl)-1-oxa-8-azaspiro[4.5]decan-3-ylamino)-2-hydroxypropoxy)-N-ethylbenzenesulfonamide] was tested, and the IC50 was 108 nM.
With CCNS(=O)(=O)c1cccc(OC[C@@H](O)CNC2COC3(CCN(S(=O)(=O)c4cnn(-c5ccccc5)c4C)CC3)C2)c1 (stereo partly drawn) [Compound 230, N-ethyl-3-((2S)-2-hydroxy-3-(8-(5-methyl-1-phenyl-1H-pyrazol-4-ylsulfonyl)-1-oxa-8-azaspiro[4.5]decan-3-ylamino)propoxy)benzenesulfonamide] the IC50 was 85.4 nM.
In the case of CNS(=O)(=O)c1cccc(OC[C@@H](O)CN[C@H]2COC3(CCN(S(=O)(=O)c4cnc5nc(C)[nH]c5c4)CC3)C2)c1 [Compound 486, 3-((S)-2-hydroxy-3-((R)-8-(2-methyl-1H-imidazo[4,5-b]pyridin-6-ylsulfonyl)-1-oxa-8-azaspiro[4.5]decan-3-ylamino)propoxy)-N-methylbenzenesulfonamide], the IC50 is reported as 41.5 nM.
Molecule CNS(=O)(=O)c1cccc(OC[C@@H](O)CNC2COC3(CCN(S(=O)(=O)c4cncc(Br)c4)CC3)C2)c1 (stereo partly drawn) [Compound 337, 3-((2S)-3-(8-(5-bromopyridin-3-ylsulfonyl)-1-oxa-8-azaspiro[4.5]decan-3-ylamino)-2-hydroxypropoxy)-N-methylbenzenesulfonamide] has an IC50 of 18.6 nM.
In the case of CNS(=O)(=O)c1cccc(OC[C@@H](O)CNC2COC3(CCN(S(=O)(=O)c4ccc(OC)c(C)c4)CC3)C2)c1 (stereo partly drawn) [Compound 147, 3-((2S)-2-hydroxy-3-(8-(4-methoxy-3-methylphenylsulfonyl)-1-oxa-8-azaspiro[4.5]decan-3-ylamino)propoxy)-N-methylbenzenesulfonamide], the IC50 is reported as 13 nM.
With CC(C)NS(=O)(=O)c1cccc(OC[C@@H](O)CNC2COC3(CCN(S(=O)(=O)c4ccc5ccccc5c4)CC3)C2)c1 (stereo partly drawn) [Compound 6, 3-((2S)-2-hydroxy-3-(8-(naphthalen-2-ylsulfonyl)-1-oxa-8-azaspiro[4.5]decan-3-ylamino)propoxy)-N-isopropylbenzenesulfonamide] the IC50 was 24.3 nM.
With CCn1cc(S(=O)(=O)N2CCC3(CC2)C[C@@H](NC[C@H](O)COc2cccc(S(=O)(=O)NC)c2)CO3)c(=O)c2cccc(F)c21 [Compound 525, 3-((S)-3-((R)-8-(1-ethyl-8-fluoro-4-oxo-1,4-dihydroquinolin-3-ylsulfonyl)-1-oxa-8-azaspiro[4.5]decan-3-ylamino)-2-hydroxypropoxy)-N-methylbenzenesulfonamide] the IC50 was 21.6 nM.
With CNS(=O)(=O)c1cccc(OC[C@@H](O)CN[C@@H]2COC3(CCN(S(=O)(=O)c4cccc(-c5cc[nH]n5)c4)CC3)C2)c1 [Compound 295, 3-((S)-3-((S)-8-(3-(1H-pyrazol-3-yl)phenylsulfonyl)-1-oxa-8-azaspiro[4.5]decan-3-ylamino)-2-hydroxypropoxy)-N-methylbenzenesulfonamide] the IC50 was 7.22 nM.
Work on CNS(=O)(=O)c1cccc(OC[C@@H](O)CN[C@H]2COC3(CCN(S(=O)(=O)c4cnc5c(c4)C(=O)NC5)CC3)C2)c1 [Compound 478, 3-((S)-2-hydroxy-3-((R)-8-(5-oxo-6,7-dihydro-5H-pyrrolo[3,4-b]pyridin-3-ylsulfonyl)-1-oxa-8-azaspiro[4.5]decan-3-ylamino)propoxy)-N-methylbenzenesulfonamide] yielded an IC50 of 204 nM.
In the case of CNS(=O)(=O)c1cccc(OC[C@@H](O)CN[C@H]2COC3(CCN(c4nccc(N)n4)CC3)C2)c1 [Compound 569, 3-((S)-3-((R)-8-(4-aminopyrimidin-2-yl)-1-oxa-8-azaspiro[4.5]decan-3-ylamino)-2-hydroxypropoxy)-N-methylbenzenesulfonamide], the IC50 is reported as 427 nM.
